Assay results: patent US20230293469A1, “NOVEL PHARMACEUTICAL COMPOSITIONS” (NEUROPRO THERAPEUTICS, INC., priority 2020, published 2023)

Tests used:
Rat Microsomes = assay: Metabolite screening of NPT-2042 in rat microsomes; type: in vitro ADME; details: NPT-2042 10 uM, microsomes 1 mg/mL, 1 hour, NADPH regenerating system
Experimental: (§1) Incubation of Test Compound in Microsomes • 1. Compound final concentration: 10 uM. • 2. Microsomes concentration 1 mg/mL. • 3. Incubate for 1 hour, with an NADPH regenerating system. • 4. 0.5 mL of incubation mixture at 0 min and 1 hour, mixed with 0.5 mL of acetonitrile. • 5. Vortex, and centrifuge at 13200 rpm for 10 min. • 6. Supernatant was transferred to a clean vial for LCMS analysis NADPH regenerating system (cofactor; consisting of NADP [0.340 mg/mL], G6P [1.56 mg/mL], and G6PDH [0.4 U/mL] solutions) LC-MS/MS Method: • HPLC Column: Agilent, Polaris 3 […], 150×2.0 mm (S/N: 533819), made in Netherlands. • Guard Column: Agilent, MonoChrom 3 C18 MetaGuard, 10×2.0 mm (S/N: 556145) • Column temperature: 40° C. • Mobile Phase A: 5 mM ammonium format in water (Optima) • Mobile Phase B: acetonitrile (Optima) • Flow rate: 0.2 mL/min • Gradient (Table on right) • MS: Thermo Q Exactive Plus.

Microsomes = assay: Proposed metabolite structures and biotransformation pathways (rat, dog, human microsomes); type: in vitro ADME; details: for Proposed Biotransformation Pathway: metabolite of NPT-2042 in microsomes
Experimental: Incubation of Test Compound in Microsomes • 1. Compound final concentration: 10 uM. • 2. Microsomes concentration 1 mg/mL. • 3. Incubate for 1 hour, with an NADPH regenerating system. • 4. 0.5 mL of incubation mixture at 0 min and 1 hour, mixed with 0.5 mL of acetonitrile. • 5. Vortex, and centrifuge at 13200 rpm for 10 min. • 6. Supernatant was transferred to a clean vial for LCMS analysis NADPH regenerating system (cofactor; consisting of NADP [0.340 mg/mL], G6P [1.56 mg/mL], and G6PDH [0.4 U/mL] solutions)
LC-MS/MS Method: • HPLC Column: Agilent, Polaris 3 C18-A, 150×2.0 mm (S/N: 533819), made in Netherlands. • Guard Column: Agilent, MonoChrom 3 C18 MetaGuard, 10×2.0 mm (S/N: 556145) • Column temperature: 40° C. • Mobile Phase A: 5 mM ammonium format in water (Optima) • Mobile Phase B: acetonitrile (Optima) • Flow rate: 0.2 mL/min • Gradient (Table on right) • MS: Thermo Q Exactive Plus.
Summary of Proposed Metabolite Structures and Biotransformation Pathway

Dog Microsomes = assay: Metabolite screening of NPT-2042 in dog microsomes; type: in vitro ADME; details: NPT-2042 10 uM, microsomes 1 mg/mL, 1 hour, NADPH regenerating system
Experimental: as §1

Human Microsomes = assay: Metabolite screening of NPT-2042 in human microsomes; type: in vitro ADME; details: NPT-2042 10 uM, microsomes 1 mg/mL, 1 hour, NADPH regenerating system
Experimental: as §1

[1] = elderly, population-based control study; cited from earlier work
[2] = Oral dose PK of NPT2042 in dog (AUC for absolute bioavailability); type: in vivo; details: dog
Experimental: Assays were performed to determine absolute bioavailability of NPT2042 in two species: dog and rat. The calculation of absolute bioavailability depends on four inputs: the areas under the curves (AUC) for oral and IV, and the oral and IV doses.
Testing was conducted to determine AUCs for an oral dose in dog.
Two dogs were each dosed 30 mg/kg NPT2042 orally, on two different days.

[3] = dose level 30 mg/kg NPT2042, Table 4
[4] = dose level 30 mg/kg NPT2042, Table 5

## CCCCNc1cc(C(=O)NCc2ccccc2)cc(S(N)(=O)=O)c1Oc1ccccc1 [Example M6]
Rat Microsomes
  Rat Mic (MS Intensity): 7.96E+07
Microsomes
  Proposed Biotransformation Pathway: De-alkylation
Dog Microsomes
  Dog Mic (MS Intensity): 4.12E+07
Human Microsomes
  Human Mic (MS Intensity): 3.25E+07

## O=C(O)Cc1ccccc1Nc1c(Cl)cccc1Cl [diclofenac, reference compound]
Microsomes; microsome incubation
  Metabolism of positive control: showed Phase I metabolism

## NS(=O)(=O)c1cc(C(=O)O)c(NCc2ccco2)cc1Cl [furosemide]
[1]
  Protective factor for the development of epilepsy: 39%

## CCCCNc1cc(C(=O)O)cc(S(N)(=O)=O)c1Oc1ccccc1 [Bumetanide, bumetanide, reference compound]
[2]; [3]
  Bumetanide concentration, Time 0.50 h: BQL
  Bumetanide concentration, Time 1.00 h: BQL
  Bumetanide concentration, Time 2.00 h: BQL
  Bumetanide concentration, Time 4.00 h: BQL
  Bumetanide concentration, Time 6.00 h: BQL
  Bumetanide concentration, Time 8.00 h: BQL
  Bumetanide concentration, Time 12.00 h: BQL
  Bumetanide concentration, Time 24.00 h: BQL
[2]; [4]
  Bumetanide concentration, Time 0.50 h: BQL
  Bumetanide concentration, Time 1.00 h: BQL
  Bumetanide concentration, Time 2.00 h: BQL
  Bumetanide concentration, Time 4.00 h: BQL
  Bumetanide concentration, Time 6.00 h: BQL
  Bumetanide concentration, Time 8.00 h: BQL
  Bumetanide concentration, Time 12.00 h: BQL
  Bumetanide concentration, Time 24.00 h: BQL

## Nc1cc(C(=O)N(Cc2ccccc2)Cc2ccccc2)cc(S(N)(=O)=O)c1Oc1ccccc1 [Example M4]
Rat Microsomes
  Rat Mic (MS Intensity): 6.53E+07
Microsomes
  Proposed Biotransformation Pathway: De-alkylation
Dog Microsomes
  Dog Mic (MS Intensity): 3.11E+07
Human Microsomes
  Human Mic (MS Intensity): 2.52E+07

## Nc1cc(C(=O)NCc2ccccc2)cc(S(N)(=O)=O)c1Oc1ccccc1 [Example M1]
Rat Microsomes
  Rat Mic (MS Intensity): 1.28E+07
Microsomes
  Proposed Biotransformation Pathway: De-alkylations
Dog Microsomes
  Dog Mic (MS Intensity): 2.95E+06
Human Microsomes
  Human Mic (MS Intensity): 1.42E+06
